# Experimental data taken from patent US6589992B2, “Inhibiting collagen-induced platelet aggregation” (Parker Hughes Institute, priority 1999, dated 2003).
# Entries after “also recorded” stand apart in the source; their conditions may differ.
# Key:
# [1] = test system: PLCγ2; assay: Collagen-induced PLCγ2 tyrosine phosphorylation in platelets (immunoprecipitation/Western blot); assay type: cell-based, human; settings: 100 μM, 30 min pretreatment; 2 μg/mL collagen
# Excerpt: The membrane was stripped and re-probed with antibodies raised against PLCγ2. An increase in the level of phosphorylated PLCγ2 was seen between 30 and 45 seconds following collagen stimulation.
# [2] = biological target: T1, TEC kinase (Homo sapiens, UniProt P42680); assay: TEC immune complex kinase assay from collagen-stimulated platelets; assay type: cell-based
# T1 sequence (P42680 1-631): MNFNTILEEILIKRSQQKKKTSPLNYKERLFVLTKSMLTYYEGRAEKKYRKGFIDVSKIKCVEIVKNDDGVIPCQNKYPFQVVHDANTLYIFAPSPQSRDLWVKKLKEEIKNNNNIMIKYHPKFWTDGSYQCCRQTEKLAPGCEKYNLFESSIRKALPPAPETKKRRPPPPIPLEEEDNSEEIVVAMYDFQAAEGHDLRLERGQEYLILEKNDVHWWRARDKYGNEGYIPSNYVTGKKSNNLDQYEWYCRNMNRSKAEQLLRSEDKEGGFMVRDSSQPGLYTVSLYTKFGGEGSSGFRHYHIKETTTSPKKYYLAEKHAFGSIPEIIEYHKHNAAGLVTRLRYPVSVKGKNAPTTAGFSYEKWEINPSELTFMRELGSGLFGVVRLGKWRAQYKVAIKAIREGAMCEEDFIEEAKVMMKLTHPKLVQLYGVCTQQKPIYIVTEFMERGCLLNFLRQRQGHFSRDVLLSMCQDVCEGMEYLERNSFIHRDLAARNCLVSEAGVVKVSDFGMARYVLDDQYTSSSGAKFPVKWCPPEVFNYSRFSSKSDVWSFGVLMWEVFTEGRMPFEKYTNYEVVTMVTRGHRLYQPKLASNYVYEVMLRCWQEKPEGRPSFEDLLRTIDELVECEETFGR
# Protocol: Platelets were isolated from platelet rich plasma (PRP) purchased from the Memorial Blood Bank (Minneapolis, Minn.) as previously described (Asselin et al. 1997) and used at a concentration of 3×10^9 cells/mL in a modified Tyrode's buffer (137 mM NaCl, 2.7 mM KCl, 0.9 mM MgCl2, 5.5 mM glucose, 3.3 mM NaH2PO4, 3.8 mM Hepes, pH 7.4). […] Platelets were then stimulated at 37° C. with 2 μg/mL (or 10 μg/mL) collagen or 0.1 U/mL thrombin (Chronolog Inc., Philadelphia, Pa.). Stimulation was stopped and platelets were lysed at the indicated time points by adding ice cold 3x Triton X-100 lysis buffer (150 mM NaCl, 15 mM EGTA, 3% Triton X-100, 3% Sodium deoxycholate, 0.3% SDS, 3 mM PMSF, 3 mM Na3 VO4, 60 μg/mL leupeptin, 60 μg/mL aprotinin, 50 mM Tris-HCl pH 7.4) and incubating for 1 hour on ice. […]
# For each drug concentration, a BTK/TEC kinase activity index as determined by comparing the ratios of the kinase activity in phosphorimager units (PIU) and density of the protein bands in densitometric scanning units (DSU) to those of the baseline sample and using the formula: Activity Index=[PIU of kinase band/DSU of BTK/TEC protein band]test sample: [PIU of kinase band/DSU of BTK/TEC protein band]baseline control sample (FIGS. 1A-1D).
# [3] = test system: platelets; assay: Thrombin-induced platelet aggregation (aggregometer); assay type: cell-based, human; settings: thrombin 0.1 U/mL
# Protocol: Platelet aggregation with respect to control was monitored in a Chronolog Model 560 Dual Chamber Platelet Aggregometer.
# Controls were treated with vehicle (PBS supplemented with 1% DMSO) alone. The treated PRP samples were diluted 1:4 with sterile normal saline and platelets were stimulated with collagen (2 μg/mL or 5 μg/mL, Chronolog Inc., Philadelphia, Pa.) or thrombin (0.1 U/mL, Chronolog Inc., Philadelphia, Pa.) as agonists under stirred conditions. Platelet aggregation was monitored in a platelet aggregometer (Model 560 Dual Chamber-Instrument, Chronolog Ind., Philadelphia, Pa.) for 5 minutes.
# [4] = test system: human platelets; assay: Electron microscopy (HR-LVSEM, TEM) of platelet shape changes; assay type: cell-based; settings: 100 μM
# Protocol: HR-LVSEM was utilized for topographical imaging of the platelet surface membrane, as previously reported (D'Cruz et al., 1998). […] Treated platelets were then stimulated with collagen (10 μg/mL) or thrombin (0.1 U/mL) for 10 seconds (FIGS. 3A-3F). 3% glutaraldehyde was added to stop the reaction. Samples were prepared for HR-LVSEM as previously described (D'Cruz et al., 1998) and analyzed using a Hitachi S-900 SEM instrument (Hitachi Instruments, Gaithersburg, Md.) at an accelerating voltage of 2 kV and […].
# Samples were then prepared for TEM as previously described (White, 1983). Briefly, 0.1% glutaraldehyde was added to stop the reaction. Following a brief centrifugation, the sample pellets were layered with 3% glutaraldehyde for 40 minutes at room temperature. The samples were then postfixed in 1% OsO4 for 1 hour at 4° C., rinsed three times in distilled water at room temperature, dehydrated in a graded ethanol series (25, 50, 75, 90, 95 and 100%) and 100% propylene oxide. The samples were embedded in Embed 812 (Electron Microscopy Science, Washington, Pa.). Silver sections were picked up on mesh grids, stained 10 minutes in 1% uranyle acetate/70% ethanol, and 10 minutes in Reynold's lead citrate. […] True magnifications were determined by photographing a calibration grid at each magnification step on the microscope and using this scale to determine final print enlargements.
# [5] = biological target: T2, SYK (Homo sapiens, UniProt P43405); assay: SYK activity in platelets; assay type: cell-based; settings: data not shown
# T2 construct: endogenous in cells; host or cells: platelets
# [6] = test system: mice; assay: Toxicity of LFM-A13 in mice; settings: mice N=160, 12.5 mg/kg to 100 mg/kg i.p.
# Excerpt: For histopathologic studies, tissues were fixed in 10% neutral buffered formalin, dehydrated, and embedded in paraffin by routine methods.
# [7] = test system: mice; assay: Platelet plug formation and clotting time after retro-orbital venupuncture in mice; assay type: in vivo; settings: for clotting time % Control / Mean Clotting Time: C57BL/6 mice; for Mean Clotting Time: n = 3
# Protocol: Mice were placed in a tube holder and tail bleeding was performed with a 2 mm cut from the protruding tail tip, the tail was placed vertically into 10 mL normal saline in a 37° C. water bath and bleeding times determined as previously described (Teng et al., 1997). Platelet plug formation and clotting times on the eye after retro-orbital venupuncture were evaluated using published methods (Sheu et al., 1995).
# The blood of XID mice clotted approximately two minutes later than the CBA control mice. Following this pattern, blood from chronically treated mice also clotted two minutes later than control. […]
# [8] = test system: ICR mice; assay: Thromboplastin-induced fatal thromboembolism in mice; assay type: in vivo; settings: for median survival time / probability of event-free survival after thromboplastin challenge: N=10
# Protocol: The mice were challenged with 25 mg/kg thromboplastin (Sigma, St. Louis, Mo.) via a bolus i.v. injection in to the tail vein as previously described (Sato et al., 1998). At the time of thromboembolism-related death, after the thromboplastin injection or elective sacrifice at 48 hours using ketamine/xylazine, all mice were perfused with PBS followed by 4% phosphate buffered formalin. PBS and formalin were pumped through the left ventricle of the heart and allowed to exit through a 3 mm incision through the anterior wall of the right ventricle.
# [9] = 40 mg/kg, after retroorbital venupuncture
smiles,measurement,setting,value
"C/C(O)=C(\C#N)C(=O)Nc1cc(Br)ccc1Br [LFM-A13, α-cyano-β-hydroxy-β-methyl-N-(2,5-dibromophenyl)-propenamide]",collagen-induced tyrosine phosphorylation of PLCγ2,[1],no enhanced tyrosine phosphorylation of PLCγ2 was detected; also recorded: No phosphorylation of PLCγ2 was noted
same,collagen-induced stimulation of TEC kinase in platelets,[2]; collagen-stimulated platelets,prevented collagen-induced stimulation of TEC kinase
same,baseline activity of TEC in unstimulated platelets,[2]; unstimulated platelets,did not reduce the baseline activity of TEC
same,"thrombin-induced platelet aggregation, PRP",[3]; PRP treated 20 min or 24 hours,No significant effect
same,effect on thrombin-induced platelet aggregation,[3]; up to 1000 μM,No significant effect; also recorded: not impaired
same,collagen-induced pseudopod formation,"[4]; 30 min, collagen 10 μg/mL, 10 seconds",inhibited collagen-induced pseudopod formation; also recorded: no pseudopods were observed
same,thrombin-induced shape changes,[4]; thrombin 0.1 U/mL,did not inhibit the thrombin-induced shape changes
same,baseline and collagen-induced SYK activity in platelets,[5],did not inhibit the baseline activity of SYK or SRC or prevent collagen-induced SYK and SRC activation
same,"toxicity, single i.p. bolus",[6],not toxic
same,clotting (eye clot) time,[7]; [9],2.6 ± 0.4 min
same,local platelet plug (eye plug) formation time,[7]; [9],45 ± 4 s
same,clotting time % Control,[7]; 25 mg/kg chronic 36 days,231%
same,Mean Clotting Time,[7]; 25 mg/kg chronic 36 days,3.7 min
same,clotting time % Control,[7]; 40 mg/kg acute 1 hour,164%
same,Mean Clotting Time,[7]; 40 mg/kg acute 1 hour,2.6 min
same,median survival time,[8]; LFM-A13 20 mg/kg,8.0 min
same,probability of event-free survival after thromboplastin challenge,[8]; LFM-A13 20 mg/kg,20±13%
same,median survival time,[8]; LFM-A13 40 mg/kg,> 2880 min
same,probability of event-free survival after thromboplastin challenge,[8]; LFM-A13 40 mg/kg,80±13%
same,drug-related toxic lesions in organs,"[8]; LFM-A13 pretreated, thromboplastin-challenged mice",No drug-related toxic lesions were detected
